In patent US8927297B2, “Methods to measure dissociation rates for ligands that form reversible covalent bonds” (Janssen Pharmaceutica N.V., priority 2009, dated 2015):

Biological target: T1, ERR-α (Homo sapiens, UniProt P11474)
T1 construct: made in house; host or cells: Spodoptera frugiperda (Sf9) insect cells, baculovirus
T1 sequence (P11474 with tags, fused parts or gaps): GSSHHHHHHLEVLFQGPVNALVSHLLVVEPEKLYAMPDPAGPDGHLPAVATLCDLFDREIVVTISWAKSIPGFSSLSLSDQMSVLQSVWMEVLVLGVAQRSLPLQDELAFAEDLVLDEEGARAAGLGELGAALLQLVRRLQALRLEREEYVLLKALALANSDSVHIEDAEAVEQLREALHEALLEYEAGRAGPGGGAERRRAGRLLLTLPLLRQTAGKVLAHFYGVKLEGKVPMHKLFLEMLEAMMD
Experiment: LC/MS kinetics of association and dissociation for ligands forming a covalent bond to Cys325 of ERR-α
Type: binding
Details: dissociation rate by LC/MS with 20-fold excess Compound 2 as competing ligand; 37° C.
Description: The progress of the reaction was also expressed as a fraction of the area observed for the complex of ERR-α and the competing ligand over the sum of total area for the complex of ERR-α with the ligand and the complex of ERR-α with the competing ligand.
where k is the apparent rate constant.

Q: With `COc1cc(/C=C2\SC(=O)NC2=O)ccc1Oc1ccc(C#N)cc1C(F)(F)F` [Compound 1] as the compound, how does the kd read?
A: 1.1e-05 s⁻¹

Q: With `COc1cc(/C=C2\SC(N3CCN(C)CC3)=NC2=O)ccc1Oc1ccc(C#N)cc1C(F)(F)F` [Compound 3] as the compound, how does the kd read?
A: 1.53e-05 s⁻¹

Q: Which kd does the source give for `CN1CCN(C2=NC(=O)/C(=C/c3ccc(Oc4ccc(C#N)cc4C(F)(F)F)c(F)c3)S2)CC1` [Compound 4] here?
A: 2.19e-05 s⁻¹

Q: `COc1cc(/C=C2\SC(N)=NC2=O)ccc1Oc1ccc(C#N)cc1C(F)(F)F` [Compound 5] was tested. Which kd did it give?
A: 2.05e-05 s⁻¹
